Patent US11136321B2, “Tricyclic compounds” (ALIGOS THERAPEUTICS, INC., priority 2019, dated 2021)

Test system: HBV
Assay: HBV-DNA antiviral assay using HepG2.117 cells
Type: cell-based, genotype D HBV
Conditions: Hepatitis B virus, 72 h, intracellular HBV DNA by qPCR, 3 days incubation
Protocol: The following assay procedure describes the HBV antiviral assay, using HepG2.117 cells, which carry a stably integrated genotype D HBV genome under the control of a Tet-off promoter, and intracellular HBV DNA quantification as endpoint. Cell viability is assessed in parallel by measuring the intracellular ATP content using ATPlite (Perkin Elmer).
On day 0, HepG2.117 cells (which are maintained in routine cell culture with doxycycline present in the medium at a final concentration of 1 μg/mL) were seeded in 96-well plates (white with clear bottom) at a density of 2.0×10^4 cells/well (0.1 mL/well) in medium without doxycycline to induce pgRNA transcription and subsequent formation of HBV particles. The cells were incubated at 37° C. and 5% CO2.
On day 1, medium was removed from each well, the test articles were diluted in culture medium without doxcycyline and 100 μL was added to cell culture wells (9 concentrations, 4-fold dilution). For each plate, 6 untreated (merely DMSO) wells were included. The final concentration of DMSO in the culture medium was 2%. Each plate was prepared in duplicate (one for HBV DNA extraction, one for ATPlite measurement). The cells were incubated at 37° C. and 5% CO2 for 3 days.
On day 4, cell viability was assessed using ATPlite and cell lysates were prepared for HBV DNA extraction and subsequent quantification by qPCR.
Medium was removed from each well and 100 μL of 0.33% NP-40 in H2O was added to each well. Plates were sealed, incubated at 4° C. for 5 mins, vortexed extensively and centrifuged briefly. Next, 35 μL of lysate was added to 65 μL QuickExtract DNA Extraction Solution (Epicentre) in a PCR plate for each well. PCR plate was incubated at 65° C. for 6 mins, 98° C. for 2 mins and finally cooled to 4° C. HBV DNA was then quantified by qPCR with HBV-specific primers and probes as specified in Table 1 using the Bio-Rad SSOAdvanced Universal Probes Supermix on a CFX96 machine (Bio-Rad). The PCR cycle program consisted of 95° C. for 3 mins, followed by 40 cycles at 95° C. for 10 sec and 60° C. for 30 sec.
A DNA standard was prepared by dilution of an IDT gBlock corresponding to the amplicon with concentrations ranging from 10^2 to 10^8 copies/input (i.e. per 4 μL) and used to generate a standard curve by plotting Cq values vs. HBV DNA standard concentration. The quantity of HBV DNA in each sample was determined by interpolating from the standard curve.
Cell viability was calculated as follows: % Cell viability=(luminescence value of test sample)/(average luminescence value of 2% DMSO control)×100%. HBV DNA inhibition was calculated as follows: 100−(HBV DNA copy number of test sample)/(average HBV DNA copy number of 2% DMSO control)×100%. No normalization to entecavir was required due to the excellent dynamic window of this assay. The CC50, EC50 and EC90 values were determined by dose-response curves fitted by GraphPad Prism using “log (agonist) vs. response—Variable slope”.

Structure (SMILES): CNC(=O)c1ccc(-n2c(=O)c3c(n4ncc(Cc5ccccc5)c24)CN(C(=O)c2ccc(Br)c(Cl)c2)CC3)cc1Cl [Compound 38, 4-[5-benzyl-12-(4-bromo-3-chloro-benzoyl)-8-oxo-2,3,7,12-tetrazatricyclo [7.4.0.0 2,6]trideca-1(9),3,5-trien-7-yl]-2-chloro-N-methyl-benzamide]
- EC50: ≤ 100 nM

Structure (SMILES): CNC(=O)c1ccc(-n2c(=O)c3c(n4ncc(Nc5ccccc5)c24)CN(C(=O)c2ccc(Cl)c(Cl)c2)CC3)cc1 [Compound 39, 4-[5-anilino-12-(3,4-dichlorobenzoyl)-8-oxo-2,3,7,12-tetrazatricyclo [7.4.0.0 2,6]trideca-1(9),3,5-trien-7-yl]-N-methyl-benzamide]
- EC50: ≤ 100 nM

Structure (SMILES): CNC(=O)c1ccc(-n2c(=O)c3c(n4ncc(Nc5ccccc5)c24)CN(C(=O)c2ccc(Br)c(Cl)c2)CC3)cc1 [Compound 40, 4-[5-anilino-12-(4-bromo-3-chloro-benzoyl)-8-oxo-2,3,7,12-tetrazatricyclo [7.4.0.0 2,6]trideca-1(9),3,5-trien-7-yl]-N-methyl-benzamide]
- EC50: ≤ 100 nM

Structure (SMILES): CNC(=O)c1ccc(-n2c(=O)c3c(n4ncc(NCc5ccc(OC(F)F)cc5)c24)CN(C(=O)c2ccc(Cl)c(Cl)c2)CC3)cc1 [Compound 41, 4-[12-(3,4-dichlorobenzoyl)-5-[[4-(difluoromethoxy)phenyl]methylamino]-8-oxo-2,3,7,12-tetrazatricyclo [7.4.0.0 2,6]trideca-1(9),3,5-trien-7-yl]-N-methyl-benzamide]
- EC50: 500 to 5000 nM

Structure (SMILES): CNC(=O)c1ccc(-n2c(=O)c3c(n4ncc(NCc5ccccc5)c24)CN(C(=O)c2ccc(Cl)c(Cl)c2)CC3)cc1 [Compound 42, 4-[5-(benzylamino)-12-(3,4-dichlorobenzoyl)-8-oxo-2,3,7,12-tetrazatricyclo [7.4.0.0 2,6]trideca-1(9),3,5-trien-7-yl]-N-methyl-benzamide]
- EC50: ≤ 100 nM

Structure (SMILES): CNC(=O)c1ccc(-n2c(=O)c3c(n4ncc(Cc5ccc(C#N)cc5)c24)CN(C(=O)c2ccc(Br)c(Cl)c2)CC3)cc1 [Compound 43, 4-(8-(4-bromo-3-chlorobenzoyl)-3-(4-cyanobenzyl)-5-oxo-6,7,8,9-tetrahydropyrazolo[1,5-a]pyrido[4,3-e]pyrimidin-4(5H)-yl)-N-methylbenzamide]
- EC50: ≤ 100 nM

Structure (SMILES): CNC(=O)c1ccc(-n2c(=O)c3c(n4ncc(NCc5ccc(OC(F)(F)F)cc5)c24)CN(C(=O)c2ccc(Cl)c(Cl)c2)CC3)cc1 [Compound 44, 4-[12-(3,4-dichlorobenzoyl)-8-oxo-5-[[4-(trifluoromethoxy)phenyl]methylamino]-2,3,7,12-tetrazatricyclo [7.4.0.0 2,6]trideca-1(9),3,5-trien-7-yl]-N-methyl-benzamide]
- EC50: 100 to 500 nM

Structure (SMILES): CNC(=O)c1ccc(-n2c(=O)c3c(n4ncc(NCc5ccc(OC(F)(F)F)cc5)c24)CN(C(=O)c2ccc(Br)c(Cl)c2)CC3)cc1 [Compound 45, 4-[12-(4-bromo-3-chloro-benzoyl)-8-oxo-5-[[4-(trifluoromethoxy)phenyl]methylamino]-2,3,7,12-tetrazatricyclo [7.4.0.0 2,6]trideca-1(9),3,5-trien-7-yl]-N-methyl-benzamide]
- EC50: ≤ 100 nM

Structure (SMILES): CNC(=O)c1ccc(-n2c(=O)c3c(n4ncc(NCc5ccc(OC(F)F)cc5)c24)CN(C(=O)c2ccc(Br)c(Cl)c2)CC3)cc1 [Compound 46, 4-[12-(4-bromo-3-chloro-benzoyl)-5-[[4-(difluoromethoxy)phenyl]methylamino]-8-oxo-2,3,7,12-tetrazatricyclo [7.4.0.0 2,6]trideca-1(9),3,5-trien-7-yl]-N-methyl-benzamide]
- EC50: ≤ 100 nM

Structure (SMILES): CNC(=O)c1ccc(-n2c(=O)c3c(n4ncc(NCc5ccccc5)c24)CN(C(=O)c2ccc(Br)c(Cl)c2)CC3)cc1 [Compound 47, 4-[5-(benzylamino)-12-(4-bromo-3-chloro-benzoyl)-8-oxo-2,3,7,12-tetrazatricyclo [7.4.0.0 2,6]trideca-1(9),3,5-trien-7-yl]-N-methyl-benzamide]
- EC50: ≤ 100 nM

Structure (SMILES): CNC(=O)c1ccc(-n2c(=O)c3c(n4ncc(Cc5ccc(C#N)cc5)c24)CN(C(=O)c2ccc(Cl)c(Cl)c2)CC3)cc1 [Compound 48, 4-[5-[(4-cyanophenyl)methyl]-12-(3,4-dichlorobenzoyl)-8-oxo-2,3,7,12-tetrazatricyclo [7.4.0.0 2,6]trideca-1(9),3,5-trien-7-yl]-N-methyl-benzamide]
- EC50: ≤ 100 nM

Structure (SMILES): NC(=O)c1ccc(-n2c(=O)c3c(n4ncc(NCc5ccccc5)c24)CN(C(=O)c2ccc(Br)c(Cl)c2)CC3)cc1 [Compound 49, 4-[5-(benzylamino)-12-(4-bromo-3-chloro-benzoyl)-8-oxo-2,3,7,12-tetrazatricyclo [7.4.0.0 2,6]trideca-1(9),3,5-trien-7-yl] benzamide]
- EC50: ≤ 100 nM

Structure (SMILES): NC(=O)c1ccc(-n2c(=O)c3c(n4ncc(NCc5ccccc5)c24)CN(C(=O)c2ccc(Cl)c(Cl)c2)CC3)cc1 [Compound 50, 4-[5-(benzylamino)-12-(3,4-dichlorobenzoyl)-8-oxo-2,3,7,12-tetrazatricyclo [7.4.0.0 2,6]trideca-1(9),3,5-trien-7-yl] benzamide]
- EC50: ≤ 100 nM

Structure (SMILES): CNC(=O)c1ccc(-n2c(=O)c3c(n4ncc(NCc5ccc(C#N)cc5)c24)CN(C(=O)c2ccc(Cl)c(Cl)c2)CC3)cc1 [Compound 51, 4-[5-[(4-cyanophenyl)methylamino]-12-(3,4-dichlorobenzoyl)-8-oxo-2,3,7,12-tetrazatricyclo [7.4.0.0 2,6]trideca-1(9),3,5-trien-7-yl]-N-methyl-benzamide]
- EC50: 500 to 5000 nM

Structure (SMILES): CNC(=O)c1ccc(-n2c(=O)c3c(n4ncc(NCc5ccc(OCC(N)=O)cc5)c24)CN(C(=O)c2ccc(Br)c(Cl)c2)CC3)cc1 [Compound 52, 4-[5-[[4-(2-amino-2-oxo-ethoxy)phenyl]methylamino]-12-(4-bromo-3-chloro-benzoyl)-8-oxo-2,3,7,12-tetrazatricyclo [7.4.0.0 2,6]trideca-1(9),3,5-trien-7-yl]-N-methyl-benzamide]
- EC50: 100 to 500 nM

Structure (SMILES): CNC(=O)c1ccc(-n2c(=O)c3c(n4ncc(NCc5ccc(OCC(N)=O)cc5)c24)CN(C(=O)c2ccc(Cl)c(Cl)c2)CC3)cc1 [Compound 53, 4-[5-[[4-(2-amino-2-oxo-ethoxy)phenyl]methylamino]-12-(3,4-dichlorobenzoyl)-8-oxo-2,3,7,12-tetrazatricyclo [7.4.0.0 2,6]trideca-1(9),3,5-trien-7-yl]-N-methyl-benzamide]
- EC50: 500 to 5000 nM

Structure (SMILES): CNC(=O)c1ccc(-n2c(=O)c3c(n4ncc(Nc5ccc(F)cc5)c24)CN(C(=O)c2ccc(Br)c(Cl)c2)CC3)cc1 [Compound 54, 4-[12-(4-bromo-3-chloro-benzoyl)-5-(4-fluoroanilino)-8-oxo-2,3,7,12-tetrazatricyclo [7.4.0.0 2,6]trideca-1(9),3,5-trien-7-yl]-N-methyl-benzamide]
- EC50: ≤ 100 nM

Structure (SMILES): CNC(=O)c1ccc(-n2c(=O)c3c(n4ncc(NCc5ccc(C#N)cc5)c24)CN(C(=O)c2ccc(Br)c(Cl)c2)CC3)cc1 [Compound 55, 4-[12-(4-bromo-3-chloro-benzoyl)-5-[(4-cyanophenyl)methylamino]-8-oxo-2,3,7,12-tetrazatricyclo [7.4.0.0 2,6]trideca-1(9),3,5-trien-7-yl]-N-methyl-benzamide]
- EC50: 100 to 500 nM

Structure (SMILES): CNC(=O)c1ccc(-n2c(=O)c3c(n4ncc(Cc5ccccc5)c24)CN(C(=O)c2ccc(Br)cn2)CC3)cc1 [Compound 56, 4-[5-benzyl-12-(5-bromopyridine-2-carbonyl)-8-oxo-2,3,7,12-tetrazatricyclo [7.4.0.0 2,6]trideca-1(9),3,5-trien-7-yl]-N-methyl-benzamide]
- EC50: 500 to 5000 nM

Structure (SMILES): CNC(=O)c1ccc(-n2c(=O)c3c(n4ncc(Cc5ccc(F)cc5)c24)CN(C(=O)c2ccc(Br)c(Cl)c2)CC3)cc1 [Compound 59, 4-[12-(4-bromo-3-chloro-benzoyl)-5-[(4-fluorophenyl)methyl]-8-oxo-2,3,7,12-tetrazatricyclo [7.4.0.0 2,6]trideca-1(9),3,5-trien-7-yl]-N-methyl-benzamide]
- EC50: ≤ 100 nM

Structure (SMILES): CNC(=O)c1ccc(-n2c(=O)c3c(n4ncc(Cc5ccc(F)cc5)c24)CN(C(=O)c2ccc(Br)c(C#N)c2)CC3)cc1 [Compound 60, 4-[12-(4-bromo-3-cyano-benzoyl)-5-[(4-fluorophenyl)methyl]-8-oxo-2,3,7,12-tetrazatricyclo [7.4.0.0 2,6]trideca-1(9),3,5-trien-7-yl]-N-methyl-benzamide]
- EC50: ≤ 100 nM
